Experimental findings from patent US9730906B2, “α-derivatives of cis-monounsaturated fatty acids for use as medicines” (UNIVERSITAT DE LES ILLES BALEARS, priority 2008, dated 2017) are described below.

Structures are written as SMILES.

What all share (assay type): cell-based, human
One test has as its system A172. Nature of the test: Effect of OHOD on cancer cells in culture (Table 2). Also on record: key to Anti-tumour effect: + [inhibition of growth]; ++ [total halt of growth]; +++ [total removal of tumour cells]; key to Mechanism of action: P [anti-proliferative]; D [differentiation]; A [apoptosis]. Particulars: A172, Glioma. The method, then: (§1) Also, a series of α-derivatives of cis-monounsaturated fatty acids were used to investigate their effectiveness in cancer treatment. Two types of experiment were performed. Firstly, the dependency of the anti-tumour effect on concentration was investigated. To perform these experiments, human lung cancer cells (A549) were cultivated in RPMI medium, supplemented with 10% foetal bovine […], 10 mM Hepes (pH 7.4), 2 mM glutamine, 2 g/l bicarbonate, 1 g/l glucose, 100 units/ml penicillin, 0.1 mg/ml streptomycin, 0.25 μg/ml Amphotericin B, at 37° C. and in the presence of 5% CO2. In a first experimental series, these cells were treated with various concentrations (0-400 μM) of OHOD and MOD11 and the number of cells was determined by flow cytometry (FIG. 3A). […] In a second series, the anti-tumour effectiveness on A549 lung cancer cells was investigated at a single concentration (150 μM) and a time of 48 hours (FIG. 3B). […] Obviously, among the previous molecules, some lacked both modifications on the α-carbon and the double bond in cis configuration (EO, HDO, ODO) and had no therapeutic effect.
(§2) In a second experimental series, designed to discover whether these molecules are effective in treatment of different types of tumours, the effect of OHOD at various concentrations on human cells of different types of cancer was studied. These experiments were performed as described before, except that the M220 and HT-29 cell lines were cultured in DMEM medium and the MDA-MB-231 line was incubated in Leibowitz L-15 medium supplemented with 15% foetal bovine […]. […] Where the nature of the tumour process requires, application can be topical (use on the skin of active products for the treatment of melanoma and other cutaneous abnormalities of cancerous nature), which can be considered as cosmetic treatments when attempts are made to correct aesthetic defects.

For another test, the system named is HT-29. Described as above. Also on record: key to Anti-tumour effect: + [inhibition of growth]; ++ [total halt of growth]; +++ [total removal of tumour cells]; key to Mechanism of action: P [anti-proliferative]; D [differentiation]; A [apoptosis]. Particulars: HT-29, Colon. The method, then:
as §1, §2

The test system of the next test is HeLa. Described as above. On the set-up: key to Anti-tumour effect: + [inhibition of growth]; ++ [total halt of growth]; +++ [total removal of tumour cells]; key to Mechanism of action: P [anti-proliferative]; D [differentiation]; A [apoptosis]. Particulars: Cervix. The protocol: as §1, §2
The next test concerns Jurkat. Described as above. On the set-up: key to Anti-tumour effect: + [inhibition of growth]; ++ [total halt of growth]; +++ [total removal of tumour cells]; key to Mechanism of action: P [anti-proliferative]; D [differentiation]; A [apoptosis]. The following applies: Lym-Leukaemia. The protocol: as §1, §2
For the next test, the system named is L-1210. Described as above. On the set-up: key to Anti-tumour effect: + [inhibition of growth]; ++ [total halt of growth]; +++ [total removal of tumour cells]; key to Mechanism of action: P [anti-proliferative]; D [differentiation]; A [apoptosis]. Particulars: L-1210, Lym-Leukaemia. The method, then:
as §1, §2

The next test deals with C-6. The description is as above. On the set-up: key to Anti-tumour effect: + [inhibition of growth]; ++ [total halt of growth]; +++ [total removal of tumour cells]. Particulars: C-6, Glio-Brain. The protocol: as §1, §2
The next test relates to HL-60. The description is as above. On the set-up: key to Anti-tumour effect: + [inhibition of growth]; ++ [total halt of growth]; +++ [total removal of tumour cells]. Particulars: HL-60, Myel-Leukaemia. The protocol: as §1, §2
The subject of another test is PC3. The description is as above. Particulars: PC3, Prostate. On the set-up: key to Anti-tumour effect: + [inhibition of growth]; ++ [total halt of growth]; +++ [total removal of tumour cells]. The protocol:
as §1, §2

The next test deals with MCF7. The description is as above. Also on record: key: + [inhibition of growth]; ++ [total halt of growth]; +++ [total removal of tumour cells]. The following applies: MCF7, Breast. The protocol: as §1, §2
A further test relates to NCI-H460. Described as above. Also on record: key: + [inhibition of growth]; ++ [total halt of growth]; +++ [total removal of tumour cells]. The following applies: NCI-H460, Lung (CPNM). The protocol:
as §1, §2

Another test deals with SF-268. Described as above. On the set-up: key: + [inhibition of growth]; ++ [total halt of growth]; +++ [total removal of tumour cells]. Particulars: SF-268, Glioma. The protocol: as §1, §2
The test system of the next test is cadherin. The test can be described thus: Cadherin levels in A549 cells (antibody, confocal microscopy). Particulars: 50 μM OHOD (48 h). The method, then:
FIG. 4. Cancer cells (A549) were incubated in the absence (FIG. 4A) and presence (FIG. 4B) of OHOD ([…], 48 h). Then they were fixed, incubated in the presence of an antibody against cadherin and were observed by confocal microscopy. Treatments with 50 μM OHOD (48 h) induced an increase of 73.6±5.4% in the levels of this protein. In treatments with the fatty acids of the invention, a significant increase in cadherin levels was observed.
Furthermore, α-derivatives of cis-monounsaturated fatty acids are capable of inducing cadherin expression. Cadherin is a cellular adhesion protein. Cells expressing cadherin are often not displaced from their tissue location as they adhere to the surrounding cells. Tumour cells that lose the capacity to synthesise this protein can migrate from the tissue in which they were generated to other body tissues where they can develop a new tumour focus by the process known as metastasis. In treatments with α-derivatives of cis-monounsaturated the fatty acids, a significant increase in cadherin levels was observed (FIG. 4). The invasive capacity of cancer cells was also investigated in a culture plate invasion model. […] Then, an area of the culture dish is scraped and the number of cells invading this region at various times, in the presence and absence of the anti-metastasis compound is counted.

With `CCCCCCCC/C=C\CCCCCCC(O)C(=O)O` (stereo not drawn) [OHOD, α-Hydroxy-cis-Δ9-octadecenoic], the Anti-tumour effect entry was “++” in the test on A172; “++” with HT-29; “+++” with HeLa; “+++” in the test on Jurkat; “+++” with L-1210; “+++” with C-6. The Anti-tumour effect entry in the test with HL-60, in the test on PC3, in the test on MCF7, with NCI-H460 and with SF-268 was “+++” in each case. The Mechanism of action result with A172 is on record as “D”; with HT-29, “A”; in the test on HeLa, “A”; in the test on Jurkat, “A”; in the test with L-1210 it was “A”; in the test on C-6 it was “P D”. For the same molecule, the results for the Mechanism of action entry in the test on HL-60 and in the test with PC3 were “P D A” and “P A”, respectively. Besides, the “increase in the levels of cadherin” value in the test on cadherin was determined as 73.6±5.4%.
